Measurements as given in US5527777A, “Peptide compounds, in particular LHRH-antagonists” (Schering Aktiengesellschaft, priority 1991, dated 1996).

Key:
[1] = test system: Mastzell; test: Mastzell test (release of histamine); type: cell-based; conditions: ED50 still not achieved at highest stated concentration
[2] = test system: release of histamine; test: in vivo observation of edematous changes on face/extremities as sign of histamine release; set-up: species or system rats; conditions: 0.1 to 5 mg/kg of body weight subcutaneously
Excerpt: In addition to the reduction of the testosterone value, the release of histamine is of importance. […] This in vivo test is ascribed considerably more relevance than the Mastzell test, used in many cases.

[3] = test system: serum testosterone concentration; test: testosterone-reducing potential in intact adult male rats (serum testosterone, radioimmunological); type: in vivo; conditions: subcutaneous, one time, 0.25 mg/kg of body weight, after 24 hours
Protocol: The peptide compounds are to be used in the treatment of benign enlargements of the prostate and carcinomas of the prostate. Therefore, the testosterone-reducing potential is tested. For this purpose, generally clearly higher dosages of one and the same antagonists are required than for the induction of an inhibition of ovulation. In the test process used here, intact adult male rats are subcutaneously treated one time with the substance to be tested. The effect on the serum testosterone concentration after 24 hours is determined radioimmunologically (kit of the Biermann company).

edematous changes on the face and/or on the extremities (typical of histamine release) [2]: occur at none of the tested dosages
Substance: Ac--D--Nal--D--Cpa--D--Pal--Ser--Tyr--D--Cit--Leu--Ahx(Mor)--Pro--D--Ala--NH2 [Example 13]
ED50 of the release of histamine [1]: > 10 µg/mL
inhibition of serum testosterone concentration in comparison to the control [3]: 26%
